Measurements taken from patent US6939863B2, “Prevention of atherosclerosis and restenosis” (priority 2002, dated 2005).
“Also recorded” adds a separate entry of the source.

Key:
[1] = test system: rat vascular smooth muscle cells; test: Vascular smooth muscle cell proliferation (cell number); assay type: cell-based; settings: for Cell number of VSMCs: 24 hours
Procedure: (§1) Rat vascular smooth muscle cells (VSMCs) (passages 5-10) were prepared from Sprague-Dawley rats and cultured in Dulbecco's modified Eagle's medium (DMEM) supplemented with 10% fetal bovine serum (FBS) as previously described (Kirschenlohr et al, in “Human Cell Culture Protocols”, New Jersey, Humana Press Inc, 1996, pp. 318-335). Human endothelial cells from umbilical veins were prepared as described (Morgan, in “Human Cell Culture Protocols”, New Jersey, Humana Press Inc, 1996, pp. 101-152)
(§2) Rat vascular smooth muscle cells and human endothelial cells were plated at a density of 10,000 cells per square centimeter in 24-well plates. After 24 hours, cells at 70-80% confluency were treated with propylthiouracil dissolved in 100% dimethylsulfoxide (DMSO) at final concentrations of from 0.05 millimolar to 15 millimolar, or with methimazole (Sigma, St. Louis, Mo.) dissolved in water at the concentrations of from 0.01 millimolar to 1 millimolar for 24-72 hours. Cell numbers were visually counted using a hemocytometer. For the thymidine incorporation study, cells were deprived of serum for 36 hours and labeled with [methyl-^3H]thymidine at […] per milliliter for 12-24 hours after synchronization. Thymidine incorporation was then measured (Newby and George, 1996, Curr. Opin. Cardiol., 11:547). Effects of propylthiouracil and methimazole on the number of vascular smooth muscle cells and human endothelial cells and thymidine incorporation by vascular smooth muscle cells were each expressed as a percentage of the number and thymidine incorporation of control cells maintained in medium containing 0.1% DMSO as vehicle.

[2] = test system: rat vascular smooth muscle cells
[3] = test system: type I and type III collagen expression in rat vascular smooth muscle cells; settings: 5 millimolar
Procedure: The expression of smooth muscle cell collagen was determined by Northern blot analysis at the RNA level and Western blot analysis on the protein level. Total RNA (10 micrograms) from vascular smooth muscle cells grown in the media containing 0 (Control), 0.5 millimolar, 2.5 millimolar, or 5 millimolar propylthiouracil (PTU) for 24 hours was electrophoresed on a 1% agarose gel. The levels of pro-α1(I) collagen mRNA were measured as radioactivities, normalized relative to the density of 18S and 28S rRNA (FIG. 12, Panel A).
The effects of lower physiological concentrations of propylthiouracil on the expression of type I and type III collagen genes was also studied at the RNA level. Northern blot analysis was carried out on total RNA from rat vascular smooth muscle cells grown for 24 to 72 hours (1 to 3 days) in media containing 0 (Control, C), 0.38 millimolar, 0.5 millimolar, or 0.76 millimolar propylthiouracil. Type I collagen (FIG. 13, Panel A) and type III collagen (FIG. 13, Panel B) mRNA radioactivity levels were normalized relative to 18S and 28S rRNA (FIG. 13, Panel C).
Type I collagen (FIG. 14, Panel A) and type III collagen (FIG. 14, Panel B) protein levels were normalized relative to the protein levels of tubulin. […]

[4] = test system: rat vascular smooth muscle cells; settings: summary table, propylthiouracil; non-contractile to contractile phenotype in vitro
[5] = test system: rat vascular smooth muscle cells; test: [methyl-3H]thymidine incorporation into VSMCs; assay type: cell-based
Procedure: as §1, §2

[6] = test system: aortas and femoral arteries of cholesterol-fed rabbits; test: Atherosclerotic lesions in rabbits on 2% cholesterol diet (Sudan III, intima/media morphometry, immunohistochemistry); assay type: in vivo, New Zealand White rabbits; settings: for Extent of sudanophilic areas / atherosclerosis in the aorta: 0.1% propylthiouracil in drinking water, 12 weeks; for Alpha-smooth muscle actin-positive cells (VSMCs) in atheromas / VSMC/macrophage ratio in atherosclerotic lesions: CHO+PTU versus CHO alone
Procedure: At the end of 12 weeks of study, the rabbits were sacrificed. The aortas (from the ascending aorta to the iliac bifurcation) and femoral arteries were removed, rinsed with phosphate-buffered saline (PBS) and stained with Sudan III, or fixed with 4% paraformaldehyde and paraffin-embedded for hematoxylin-eosin staining or immunohistochemical analysis.
For morphometric studies, up to ten cross sections ([…] and 2 millimeters apart from each other) were prepared from each paraffin-embedded segment of the aorta and femoral arteries. The specimens were stained with hematoxylin and eosin. For each cross section of an arterial specimen, the intimal and medial areas were measured.
For immunohistochemical studies, the arterial sections were deparaffinized, rehydrated and blocked in PBS containing 1% bovine serum albumin and 1% goat serum at room temperature for 30 minutes. The sections were then incubated with mouse monoclonal antibodies against smooth muscle cell alpha-actin (clone 1A4, catalogue number M0851, DAKO Corp., Carpenteria, Calif.) and mouse monoclonal antibodies against rabbit macrophages (clone RAM 11, catalogue number M0633, DAKO Corp., Carpenteria, Calif.) at 4° C. overnight. Subsequently, immunohistochemistry was performed using a commercially available peroxidase-labelled streptavidin-biotin kit (DAKO LSAB peroxidase, catalogue number K0675, DAKO, Carpenteria, Calif.) and 3,3′-diaminobenzidine tetrahydrochloride (DAKO liquid DAB+ substrate-chromagen system, catalogue number K3468, DAKO, Carpenteria, Calif.) according to the procedures provide by manufacturer.

CCCc1cc(=O)[nH]c(=S)[nH]1 [Propylthiouracil, 6-n-propyl-2-thiouracil]
Cell number of VSMCs ([1]; 0.05 millimolar): 103 % of control | Proliferation of VSMCs at low concentration ([1]; 0.05 millimolar, 24 hours treatment): not inhibited | Proliferation of VSMCs at low concentration, long-term ([1]; 0.05 millimolar, exposed for more than 2 days): antiproliferative effect was indeed observed | Cell number of VSMCs ([1]; 0.5 millimolar): 103 % of control | Cell number of VSMCs ([1]; 2.5 millimolar): 76 % of control | Cell number of VSMCs ([1]; 5 millimolar): 57 % of control | IC50 ([1]; Rattus norvegicus, VSMC, 24 h, read-out: IC50 for VSMCs (proliferation)): 5.8 mM | Inhibition of growth/proliferation of VSMCs ([1]; concentration-dependent, PTU 0.05-5 millimolar, methimazole 0.01-1 millimolar): significantly inhibited | Cytotoxic effect on VSMCs by trypan blue exclusion test ([2]; 24 hours): no cytotoxic effect | Number of cells that excluded trypan blue ([2]; 24 hours treatment, n=5): 94.4±0.4% | Staining density for type I collagen (immunocytochemistry) [3]: decrease | Staining density for type III collagen (immunocytochemistry) [3]: decrease | Phenotype change [4]: + | Thymidine incorporation into VSMCs ([5]; 0.05 millimolar): 99 % of control | Thymidine incorporation into VSMCs ([5]; 0.5 millimolar): 93 % of control | Thymidine incorporation into VSMCs ([5]; 2.5 millimolar): 75 % of control | Thymidine incorporation into VSMCs ([5]; 5 millimolar): 38 % of control | Inhibition of thymidine incorporation into VSMCs ([5]; concentration-dependent): significantly inhibited | Extent of sudanophilic areas / atherosclerosis in the aorta ([6]; 2% cholesterol diet): markedly less; also recorded: significantly decreased | Extent of sudanophilic areas / atherosclerosis in the aorta ([6]; 2% cholesterol diet, listed as PTU): markedly less | Alpha-smooth muscle actin-positive cells (VSMCs) in atheromas [6]: significantly fewer | VSMC/macrophage ratio in atherosclerotic lesions [6]: reduce | Alpha-smooth muscle actin-positive cells (VSMCs) in atheromas ([6]; listed as PTU): markedly fewer | VSMC/macrophage ratio in atherosclerotic lesions ([6]; listed as PTU): decreased | Intima/media area ratio ([6]; ascending aorta, aortic arch and femoral arteries, 2% cholesterol diet): deceased significantly | Visible atherosclerotic lesion in aortas and arteries ([6]; normal chow, Groups 2 and 3, data not shown): no visible atherosclerotic lesion | TUNEL-positive cells in aortas of rabbits ([6]; propylthiouracil and cholesterol/propylthiouracil treatment groups): absent
